Test results from article PMC10882719 (Frontiers in Neuroscience, 2024).
Like-named read-outs stand apart in the source and are kept apart here.

Key:
Assay type in all cases: cell-based
168 GPCRs [1] = molecular target: T1, 168 GPCRs (Homo sapiens, UniProt Q9H244); details: P2RY12
T1 construct: host or cells: PathHunter cell lines

168 GPCRs [2] = molecular target: T2, 168 GPCRs (Homo sapiens, UniProt P35367)
T2 construct: host or cells: PathHunter cell lines

168 GPCRs [3] = molecular target: T3, 168 GPCRs (Homo sapiens, UniProt P48039); details: MTNR1A
T3 construct: host or cells: PathHunter cell lines

168 GPCRs [4] = molecular target: T4, 168 GPCRs (Homo sapiens, UniProt P32241); details: VIPR1
T4 construct: host or cells: PathHunter cell lines
T4 sequence (P32241 31-457): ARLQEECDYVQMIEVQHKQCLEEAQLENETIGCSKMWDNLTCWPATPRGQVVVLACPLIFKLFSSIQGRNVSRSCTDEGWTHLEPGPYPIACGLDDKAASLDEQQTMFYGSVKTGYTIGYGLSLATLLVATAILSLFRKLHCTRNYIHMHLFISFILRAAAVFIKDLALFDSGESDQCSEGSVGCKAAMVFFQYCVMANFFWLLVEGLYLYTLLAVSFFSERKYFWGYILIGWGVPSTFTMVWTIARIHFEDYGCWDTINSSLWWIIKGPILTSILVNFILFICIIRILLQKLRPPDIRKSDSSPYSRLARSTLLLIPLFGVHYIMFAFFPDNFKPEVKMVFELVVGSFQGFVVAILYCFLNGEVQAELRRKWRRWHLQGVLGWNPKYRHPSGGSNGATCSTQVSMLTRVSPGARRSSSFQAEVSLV

168 GPCRs [5] = molecular target: T5, 168 GPCRs (Homo sapiens, UniProt P30988)
T5 construct: host or cells: PathHunter cell lines
T5 sequence (P30988 25-474): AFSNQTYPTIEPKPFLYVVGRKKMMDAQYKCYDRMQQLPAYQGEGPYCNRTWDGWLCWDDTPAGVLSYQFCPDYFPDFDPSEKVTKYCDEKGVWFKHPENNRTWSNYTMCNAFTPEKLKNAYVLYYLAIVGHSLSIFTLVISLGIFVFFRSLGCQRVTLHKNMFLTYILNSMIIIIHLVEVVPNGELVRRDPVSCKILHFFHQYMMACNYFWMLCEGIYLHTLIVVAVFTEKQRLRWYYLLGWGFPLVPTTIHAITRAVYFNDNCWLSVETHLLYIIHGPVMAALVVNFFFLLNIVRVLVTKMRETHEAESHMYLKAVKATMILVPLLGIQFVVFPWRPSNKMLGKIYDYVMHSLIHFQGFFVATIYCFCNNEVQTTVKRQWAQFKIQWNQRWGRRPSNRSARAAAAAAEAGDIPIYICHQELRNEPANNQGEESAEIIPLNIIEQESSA

168 GPCRs [6] = molecular target: T6, 168 GPCRs (Homo sapiens, UniProt P43088); details: PTGFR
T6 construct: host or cells: PathHunter cell lines

168 GPCRs [7] = molecular target: T7, 168 GPCRs (Homo sapiens, UniProt P35346); details: SSTR5
T7 construct: host or cells: PathHunter cell lines

168 GPCRs [8] = molecular target: T8, 168 GPCRs (Homo sapiens, UniProt P41586)
T8 construct: host or cells: PathHunter cell lines
T8 sequence (P41586 21-468): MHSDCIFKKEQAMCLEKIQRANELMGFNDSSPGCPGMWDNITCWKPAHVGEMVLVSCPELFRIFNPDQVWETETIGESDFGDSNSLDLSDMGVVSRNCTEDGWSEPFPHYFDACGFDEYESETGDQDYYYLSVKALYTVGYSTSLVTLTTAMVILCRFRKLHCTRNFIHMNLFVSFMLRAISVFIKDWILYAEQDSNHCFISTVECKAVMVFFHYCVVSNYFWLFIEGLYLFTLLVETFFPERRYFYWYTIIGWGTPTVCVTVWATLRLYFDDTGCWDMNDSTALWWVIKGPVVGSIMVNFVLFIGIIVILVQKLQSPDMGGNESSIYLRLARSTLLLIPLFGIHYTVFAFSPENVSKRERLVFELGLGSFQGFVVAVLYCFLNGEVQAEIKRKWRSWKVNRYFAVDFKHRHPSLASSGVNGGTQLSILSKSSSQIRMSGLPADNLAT

168 GPCRs [9] = molecular target: T9, 168 GPCRs (Homo sapiens, UniProt P35372); details: OPRM1
T9 construct: host or cells: PathHunter cell lines
T9 sequence (P35372 whole entry): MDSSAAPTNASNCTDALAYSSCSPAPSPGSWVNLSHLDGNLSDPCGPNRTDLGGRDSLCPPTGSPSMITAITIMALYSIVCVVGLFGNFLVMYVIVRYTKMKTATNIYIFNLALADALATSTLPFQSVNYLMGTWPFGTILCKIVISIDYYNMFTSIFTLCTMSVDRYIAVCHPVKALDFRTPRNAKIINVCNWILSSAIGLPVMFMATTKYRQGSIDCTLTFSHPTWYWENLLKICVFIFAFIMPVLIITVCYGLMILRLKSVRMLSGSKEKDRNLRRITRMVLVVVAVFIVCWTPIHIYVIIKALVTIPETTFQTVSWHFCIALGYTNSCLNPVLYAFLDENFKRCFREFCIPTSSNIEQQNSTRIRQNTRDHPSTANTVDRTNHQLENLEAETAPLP

T2 sequence (P35367 whole entry): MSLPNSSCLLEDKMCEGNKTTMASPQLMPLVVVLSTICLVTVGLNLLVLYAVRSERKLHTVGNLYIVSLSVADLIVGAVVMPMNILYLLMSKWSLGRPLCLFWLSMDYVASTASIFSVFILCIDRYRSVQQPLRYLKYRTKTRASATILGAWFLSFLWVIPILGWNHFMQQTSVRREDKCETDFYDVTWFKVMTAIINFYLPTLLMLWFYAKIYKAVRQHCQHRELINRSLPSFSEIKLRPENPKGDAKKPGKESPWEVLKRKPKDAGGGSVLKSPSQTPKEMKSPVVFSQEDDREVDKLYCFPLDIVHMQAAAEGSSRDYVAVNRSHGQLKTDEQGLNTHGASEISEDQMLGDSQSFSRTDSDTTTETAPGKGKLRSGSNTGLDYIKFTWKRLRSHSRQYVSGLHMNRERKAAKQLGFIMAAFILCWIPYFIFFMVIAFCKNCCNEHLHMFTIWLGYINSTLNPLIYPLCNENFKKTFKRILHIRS
T1 sequence (Q9H244 whole entry): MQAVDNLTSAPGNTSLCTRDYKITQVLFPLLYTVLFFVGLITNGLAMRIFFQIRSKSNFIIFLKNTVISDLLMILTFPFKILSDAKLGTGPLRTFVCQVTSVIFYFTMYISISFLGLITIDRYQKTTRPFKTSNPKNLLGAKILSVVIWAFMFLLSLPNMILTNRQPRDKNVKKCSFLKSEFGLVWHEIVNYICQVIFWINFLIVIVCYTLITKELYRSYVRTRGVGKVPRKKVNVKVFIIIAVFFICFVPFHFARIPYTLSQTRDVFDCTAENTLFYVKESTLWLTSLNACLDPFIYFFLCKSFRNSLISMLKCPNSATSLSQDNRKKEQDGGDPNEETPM
T6 sequence (P43088 whole entry): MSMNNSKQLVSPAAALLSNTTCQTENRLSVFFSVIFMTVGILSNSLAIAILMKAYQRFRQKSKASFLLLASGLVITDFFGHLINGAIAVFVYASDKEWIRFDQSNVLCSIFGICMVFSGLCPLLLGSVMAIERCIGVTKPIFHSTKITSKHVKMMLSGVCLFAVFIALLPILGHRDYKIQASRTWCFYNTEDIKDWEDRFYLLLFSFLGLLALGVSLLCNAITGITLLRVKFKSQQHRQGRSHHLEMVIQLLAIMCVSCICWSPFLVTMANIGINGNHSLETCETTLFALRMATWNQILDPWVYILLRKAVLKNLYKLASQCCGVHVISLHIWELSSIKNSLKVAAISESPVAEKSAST
T7 sequence (P35346 whole entry): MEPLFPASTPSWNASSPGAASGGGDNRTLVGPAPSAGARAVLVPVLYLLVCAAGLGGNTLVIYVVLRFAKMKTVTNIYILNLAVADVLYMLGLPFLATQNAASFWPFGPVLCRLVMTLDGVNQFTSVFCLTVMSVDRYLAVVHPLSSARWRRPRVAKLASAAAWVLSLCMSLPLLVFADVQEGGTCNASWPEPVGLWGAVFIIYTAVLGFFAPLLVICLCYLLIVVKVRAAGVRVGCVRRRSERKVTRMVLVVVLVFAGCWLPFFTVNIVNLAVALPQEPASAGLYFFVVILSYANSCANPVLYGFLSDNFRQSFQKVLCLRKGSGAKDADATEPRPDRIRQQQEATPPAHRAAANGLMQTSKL
T3 sequence (P48039 whole entry): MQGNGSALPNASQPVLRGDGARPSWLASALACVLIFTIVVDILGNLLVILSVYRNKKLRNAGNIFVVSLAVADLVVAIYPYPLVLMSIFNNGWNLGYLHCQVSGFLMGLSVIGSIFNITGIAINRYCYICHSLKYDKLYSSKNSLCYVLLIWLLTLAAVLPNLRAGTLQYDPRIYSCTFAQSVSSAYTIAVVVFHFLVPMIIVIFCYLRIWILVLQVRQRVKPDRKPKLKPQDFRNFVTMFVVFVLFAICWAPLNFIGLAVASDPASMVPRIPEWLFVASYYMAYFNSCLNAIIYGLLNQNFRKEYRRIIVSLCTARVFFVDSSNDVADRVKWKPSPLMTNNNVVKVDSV

Question: For `CNC(C)Cc1ccc2c(c1)OCO2` (stereo not shown) [MDMA, 3,4-Methylenedioxy methamphetamine, reference compound], which “% Agonist Activity” value (168 GPCRs [1]; Conc 1 uM) is on record?
Answer: -1.6%

Question: What about the “% Antagonist Activity” value (168 GPCRs [1]; Conc 1 uM) of the same molecule?
Answer: 8.6%

Question: What about the “% Agonist Activity” value (168 GPCRs [1]; Conc 10 uM) of the same molecule?
Answer: -0.6%

Question: What about the “% Antagonist Activity” value (168 GPCRs [1]; Conc 10 uM) of the same molecule?
Answer: 5.9%

Question: And the “% Agonist Activity” value (168 GPCRs [2]; HRH1, 1 uM)?
Answer: 3.1%

Question: What about the “% Antagonist Activity” value (168 GPCRs [2]; HRH1, 1 uM) of the same molecule?
Answer: 13.7%

Question: What about the “% Agonist Activity” value (168 GPCRs [2]; HRH1, 10 uM) of the same molecule?
Answer: 3.8%

Question: And the “% Antagonist Activity” value (168 GPCRs [2]; HRH1, 10 uM)?
Answer: 38.4%

Question: What about the “% Agonist Activity” value (168 GPCRs [3]; 1 uM) of the same molecule?
Answer: -9.2%

Question: And the “% Antagonist Activity” value (168 GPCRs [3]; 1 uM)?
Answer: 18.4%

Question: And the “% Agonist Activity” value (168 GPCRs [3]; 10 uM)?
Answer: -9.6%

Question: And the “% Antagonist Activity” value (168 GPCRs [3]; 10 uM)?
Answer: 17.7%

Question: And the “% Agonist Activity” value (168 GPCRs [4]; Conc 1 uM)?
Answer: -0.8%

Question: And the “% Antagonist Activity” value (168 GPCRs [4]; Conc 1 uM)?
Answer: 5.7%

Question: And the “% Agonist Activity” value (168 GPCRs [4]; Conc 10 uM)?
Answer: -0.6%

Question: What about the “% Antagonist Activity” value (168 GPCRs [4]; Conc 10 uM) of the same molecule?
Answer: 5.1%

Question: What about the “% Agonist Activity” value (168 GPCRs [5]; CALCR, 1 uM) of the same molecule?
Answer: -3.5%

Question: And the “% Antagonist Activity” value (168 GPCRs [5]; CALCR, 1 uM)?
Answer: -8.1%

Question: What about the “% Agonist Activity” value (168 GPCRs [5]; CALCR, 10 uM) of the same molecule?
Answer: -2.4%

Question: What about the “% Antagonist Activity” value (168 GPCRs [5]; CALCR, 10 uM) of the same molecule?
Answer: 6.8%

Question: And the “% Agonist Activity” value (168 GPCRs [5]; CALCR-RAMP2, 1 uM)?
Answer: -0.3%

Question: What about the “% Antagonist Activity” value (168 GPCRs [5]; CALCR-RAMP2, 1 uM) of the same molecule?
Answer: 12.8%

Question: And the “% Agonist Activity” value (168 GPCRs [5]; CALCR-RAMP2, 10 uM)?
Answer: 2.9%

Question: And the “% Antagonist Activity” value (168 GPCRs [5]; CALCR-RAMP2, 10 uM)?
Answer: 15.7%

Question: What about the “% Agonist Activity” value (168 GPCRs [5]; CALCR-RAMP3, 1 uM) of the same molecule?
Answer: -18.3%

Question: What about the “% Antagonist Activity” value (168 GPCRs [5]; CALCR-RAMP3, 1 uM) of the same molecule?
Answer: -3.6%

Question: And the “% Agonist Activity” value (168 GPCRs [5]; CALCR-RAMP3, 10 uM)?
Answer: -1.4%

Question: What about the “% Antagonist Activity” value (168 GPCRs [5]; CALCR-RAMP3, 10 uM) of the same molecule?
Answer: -1.3%

Question: And the “% Agonist Activity” value (168 GPCRs [6]; Conc 1 uM)?
Answer: -1.5%

Question: And the “% Antagonist Activity” value (168 GPCRs [6]; Conc 1 uM)?
Answer: -1.5%

Question: What about the “% Agonist Activity” value (168 GPCRs [6]; Conc 10 uM) of the same molecule?
Answer: -0.4%

Question: What about the “% Antagonist Activity” value (168 GPCRs [6]; Conc 10 uM) of the same molecule?
Answer: 7.8%

Question: What about the “% Agonist Activity” value (168 GPCRs [7]; Conc 1 uM) of the same molecule?
Answer: -2.5%

Question: And the “% Antagonist Activity” value (168 GPCRs [7]; Conc 1 uM)?
Answer: 1.6%

Question: And the “% Agonist Activity” value (168 GPCRs [7]; Conc 10 uM)?
Answer: -3.2%

Question: And the “% Antagonist Activity” value (168 GPCRs [7]; Conc 10 uM)?
Answer: -2%

Question: What about the “% Agonist Activity” value (168 GPCRs [8]; ADCYAP1R1, 1 uM) of the same molecule?
Answer: -0.3%

Question: And the “% Antagonist Activity” value (168 GPCRs [8]; ADCYAP1R1, 1 uM)?
Answer: -0.9%

Question: What about the “% Agonist Activity” value (168 GPCRs [8]; ADCYAP1R1, 10 uM) of the same molecule?
Answer: -0.8%

Question: What about the “% Antagonist Activity” value (168 GPCRs [8]; ADCYAP1R1, 10 uM) of the same molecule?
Answer: -0.1%

Question: And the “% Agonist Activity” value (168 GPCRs [9]; Conc 1 uM)?
Answer: -0.4%

Question: What about the “% Antagonist Activity” value (168 GPCRs [9]; Conc 1 uM) of the same molecule?
Answer: -22.1%

Question: What about the “% Agonist Activity” value (168 GPCRs [9]; Conc 10 uM) of the same molecule?
Answer: -0.2%

Question: What about the “% Antagonist Activity” value (168 GPCRs [9]; Conc 10 uM) of the same molecule?
Answer: -18.9%

Question: What does the source list for `CNC(C)C(=O)c1ccc2c(c1)OCO2` (stereo not shown) [methylone]?
Answer: % Agonist Activity (168 GPCRs [1]; Conc 1 uM): -1.5%; % Antagonist Activity (168 GPCRs [1]; Conc 1 uM): -14.8%; % Agonist Activity (168 GPCRs [1]; Conc 10 uM): -2.5%; % Antagonist Activity (168 GPCRs [1]; Conc 10 uM): -10.4%; % Agonist Activity (168 GPCRs [2]; HRH1, 1 uM): 3%; % Antagonist Activity (168 GPCRs [2]; HRH1, 1 uM): -18%; % Agonist Activity (168 GPCRs [2]; HRH1, 10 uM): 2.5%; % Antagonist Activity (168 GPCRs [2]; HRH1, 10 uM): -2.2%; % Agonist Activity (168 GPCRs [3]; 1 uM): -12.3%; % Antagonist Activity (168 GPCRs [3]; 1 uM): 30.8%; % Agonist Activity (168 GPCRs [3]; 10 uM): -11.7%; % Antagonist Activity (168 GPCRs [3]; 10 uM): 7.8%; % Agonist Activity (168 GPCRs [4]; Conc 1 uM): 0.3%; % Antagonist Activity (168 GPCRs [4]; Conc 1 uM): -0.7%; % Agonist Activity (168 GPCRs [4]; Conc 10 uM): 0.6%; % Antagonist Activity (168 GPCRs [4]; Conc 10 uM): 5.3%; % Agonist Activity (168 GPCRs [5]; CALCR, 1 uM): -0.3%; % Antagonist Activity (168 GPCRs [5]; CALCR, 1 uM): 5.4%; % Agonist Activity (168 GPCRs [5]; CALCR, 10 uM): -0.2%; % Antagonist Activity (168 GPCRs [5]; CALCR, 10 uM): -4.4%; % Agonist Activity (168 GPCRs [5]; CALCR-RAMP2, 1 uM): 0.9%; % Antagonist Activity (168 GPCRs [5]; CALCR-RAMP2, 1 uM): -10.6%; % Agonist Activity (168 GPCRs [5]; CALCR-RAMP2, 10 uM): 1.6%; % Antagonist Activity (168 GPCRs [5]; CALCR-RAMP2, 10 uM): -19.6%; % Agonist Activity (168 GPCRs [5]; CALCR-RAMP3, 1 uM): 7.9%; % Antagonist Activity (168 GPCRs [5]; CALCR-RAMP3, 1 uM): -8.9%; % Agonist Activity (168 GPCRs [5]; CALCR-RAMP3, 10 uM): 7.1%; % Antagonist Activity (168 GPCRs [5]; CALCR-RAMP3, 10 uM): -3.3%; % Agonist Activity (168 GPCRs [6]; Conc 1 uM): 0.3%; % Antagonist Activity (168 GPCRs [6]; Conc 1 uM): 0.9%; % Agonist Activity (168 GPCRs [6]; Conc 10 uM): -0.2%; % Antagonist Activity (168 GPCRs [6]; Conc 10 uM): 0%; % Agonist Activity (168 GPCRs [7]; Conc 1 uM): -2.4%; % Antagonist Activity (168 GPCRs [7]; Conc 1 uM): 14.7%; % Agonist Activity (168 GPCRs [7]; Conc 10 uM): -1.3%; % Antagonist Activity (168 GPCRs [7]; Conc 10 uM): 5.7%; % Agonist Activity (168 GPCRs [8]; ADCYAP1R1, 1 uM): -4%; % Antagonist Activity (168 GPCRs [8]; ADCYAP1R1, 1 uM): 13.6%; % Agonist Activity (168 GPCRs [8]; ADCYAP1R1, 10 uM): -3%; % Antagonist Activity (168 GPCRs [8]; ADCYAP1R1, 10 uM): 12.5%; % Agonist Activity (168 GPCRs [9]; Conc 1 uM): 0.2%; % Antagonist Activity (168 GPCRs [9]; Conc 1 uM): -8%; % Agonist Activity (168 GPCRs [9]; Conc 10 uM): 0.5%; % Antagonist Activity (168 GPCRs [9]; Conc 10 uM): -18%
